Patent US9770446B2, “Piperidine urea derivatives” (MERCK PATENT GMBH, priority 2013, dated 2017)

Key:
[1] = biological target: T1, GST-tagged Tankyrase-1 (1023-1327 aa) (Homo sapiens, UniProt O95271); assay: Tankyrase 1 autoparsylation HTRF enzyme assay; format: biochemical; conditions: read-out: IC50 TNKS1 enzyme assay
T1 construct: GST-tagged Tankyrase-1 (1023-1327 aa)
Procedure: Biochemical activity testing of Tankyrase 1 and 2: Autoparsylation assay
(§1) The autoparsylation assay is run in two steps: the enzymatic reaction in which GST-tagged Tankyrase-1, resp Tankyrase-2 transferred biotinylated ADP-ribose to itself from biotinylated NAD as co-substrate and the detection reaction where a time resolved FRET between cryptate labelled anti-GST bound to the GST tag of the enzyme and Xlent® labelled-streptavidin bound the biotin-parsylation residue is analysed. The autoparsylation activity was detectable directly via the increase in HTRF signal.
The autoparsylation assay is performed as 384-well HTRF® (Cisbio, Codolet, France) assay format in Greiner low volume nb 384-well microtiter plates and is used for high throughput screen. 250 nM GST-tagged Tankyrase-1 (1023-1327 aa), respectively about 250 nM GST-tagged Tankyrase-2 (873-1166 aa) and 5 μM bio-NAD (Biolog, Life science Inst., Bremen, Germany) as co-substrate are incubated in a total volume of 5 μl (50 mM HEPES, 4 mM Mg-chloride, 0.05% Pluronic F-68, 1.4 mM DTT, 0.5% DMSO, pH 7.7) in the absence or presence of the test compound (10 dilution concentrations) for 90 min at 30° C. The reaction is stopped by the addition of 1 μl 50 mM EDTA solution. 2 μl of the detection solution (1.6 μM SA-Xlent® (Cisbio, Codolet, France), 7.4 nM Anti-GST-K® (Eu-labelled anti-GST, Cisbio, Codolet, France) in 50 mM HEPES, 800 mM KF, 0.1% BSA, 20 mM EDTA, 0.1% CHAPS, pH 7.0) are added. After 1 h incubation at room temperature the HTRF is measured with an Envision multimode reader (Perkin Elmer LAS Germany GmbH) at excitation wavelength 340 nm (laser mode) and emission wavelengths 615 nm and 665 nm. The ratio of the emission signals is determined. The full value used is the inhibitor-free reaction. The pharmacological zero value used is XAV-939 (Tocris) in a final concentration of 5 μM. The inhibitory values (IC50) are determined using either the program Symyx Assay Explorer® or Condosseo® from GeneData.

His-tagged Parp-1 = biological target: T2, His-tagged Parp-1 (Homo sapiens, UniProt P09874); assay: PARP-1 autoparsylation HTRF assay; format: biochemical
T2 construct: purchased Enzo Life Sciences GmbH, Lörrach, Germany
Description: Description of the PARP1 Assay
Biochemical Activity Testing of PARP-1: Autoparsylation Assay
as §1, with “His-tagged Parp-1 transfers” for “GST-tagged Tankyrase-1, resp Tankyrase-2 transferred”, “ADP-ribose/ADP-ribose” for “ADP-ribose”, “NAD/NAD” for “NAD”, “anti-His antibody” for “anti-GST”, “His” for “GST”, “is” for “was”
The autoparsylation assay is performed as 384-well HTRF® (Cisbio, Codolet, France) assay format in Greiner low volume nb 384-well microtiter plates. 35 nM His-tagged Parp-1 (human, recombinant, Enzo Life Sciences GmbH, Lörrach, Germany) and a mixture of 125 nM bio-NAD (Biolog, Life science Inst., Bremen, Germany) and 800 nM NAD as co-substrate are incubated in a total volume of 6 μl (100 mM Tris/HCl, 4 mM Mg-chloride, 0.01% IGEPAL® CA630, 1 mM DTT, 0.5% DMSO, pH 8, 13 ng/μl activated DNA (BPS Bioscience, San Diego, US)) in the absence or presence of the test compound (10 dilution concentrations) for 150 min at 23° C. The reaction is stopped by the addition of 4 μl of the Stop/detection solution (70 nM SA-Xlent® (Cisbio, Codolet, France), 2.5 nM Anti-His-K® (Eu-labelled anti-His, Cisbio, Codolet, France) in 50 mM HEPES, 400 mM KF, 0.1% BSA, 20 mM EDTA, pH 7.0). After 1 h incubation at room temperature the HTRF iss measured with an Envision multimode reader (Perkin Elmer LAS Germany GmbH) at excitation wavelength 340 nm (laser mode) and emission wavelengths 615 nm and 665 nm. The ratio of the emission signals is determined. The full value used is the inhibitor-free reaction. The pharmacological zero value used is Olaparib (LClabs, Woburn, US) in a final concentration of 1 μM. The inhibitory values (IC50) are determined using either the program Symyx Assay Explorer® or Condosseo® from GeneData.

T2 sequence (P09874 whole entry): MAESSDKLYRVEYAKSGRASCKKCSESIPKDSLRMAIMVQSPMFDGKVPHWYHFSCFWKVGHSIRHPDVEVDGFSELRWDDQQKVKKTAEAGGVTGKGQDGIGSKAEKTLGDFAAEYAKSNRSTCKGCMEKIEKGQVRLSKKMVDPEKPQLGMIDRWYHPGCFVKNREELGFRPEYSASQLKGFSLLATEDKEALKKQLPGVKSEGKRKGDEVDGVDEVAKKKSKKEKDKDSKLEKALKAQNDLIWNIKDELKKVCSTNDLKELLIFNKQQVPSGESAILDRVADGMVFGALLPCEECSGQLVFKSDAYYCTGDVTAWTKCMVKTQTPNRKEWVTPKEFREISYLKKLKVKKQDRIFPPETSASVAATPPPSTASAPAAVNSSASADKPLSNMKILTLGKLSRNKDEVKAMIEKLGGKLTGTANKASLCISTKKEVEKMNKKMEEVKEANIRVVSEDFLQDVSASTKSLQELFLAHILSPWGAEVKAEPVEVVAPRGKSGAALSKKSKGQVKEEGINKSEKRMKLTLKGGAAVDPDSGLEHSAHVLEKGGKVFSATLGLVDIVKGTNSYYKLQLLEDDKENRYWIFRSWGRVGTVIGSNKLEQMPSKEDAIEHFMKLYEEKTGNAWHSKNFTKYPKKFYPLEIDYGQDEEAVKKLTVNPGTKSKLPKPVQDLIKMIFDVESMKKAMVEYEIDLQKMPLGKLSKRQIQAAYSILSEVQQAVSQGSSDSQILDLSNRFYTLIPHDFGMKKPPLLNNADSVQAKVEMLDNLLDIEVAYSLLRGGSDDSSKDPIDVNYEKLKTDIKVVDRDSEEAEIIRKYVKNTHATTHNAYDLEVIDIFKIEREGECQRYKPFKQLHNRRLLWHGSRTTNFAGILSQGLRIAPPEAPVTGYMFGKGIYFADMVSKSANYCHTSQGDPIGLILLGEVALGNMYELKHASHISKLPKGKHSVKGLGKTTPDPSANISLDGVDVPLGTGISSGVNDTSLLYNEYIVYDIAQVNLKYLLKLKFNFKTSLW
T1 sequence (O95271 1023-1327): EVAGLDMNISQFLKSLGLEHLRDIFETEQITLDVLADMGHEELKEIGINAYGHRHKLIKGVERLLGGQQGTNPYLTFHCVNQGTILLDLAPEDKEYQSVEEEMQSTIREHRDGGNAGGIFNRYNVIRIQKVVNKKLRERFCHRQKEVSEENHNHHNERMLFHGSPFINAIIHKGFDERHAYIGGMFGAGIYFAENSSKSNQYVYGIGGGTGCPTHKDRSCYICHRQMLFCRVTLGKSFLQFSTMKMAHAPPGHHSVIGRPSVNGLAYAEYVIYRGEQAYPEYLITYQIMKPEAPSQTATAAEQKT

| Compound | IC50 [1] [µM] | IC50 (His-tagged Parp-1) [µM] |
| --- | --- | --- |
| Cc1cccc(N(C)C(=O)N2CCC(C(=O)c3ccccc3)CC2)c1 [Compound A1, 4-benzoyl-piperidine-1-carboxylic acid methyl-m-tolyl-amide] | 0.3 to 3 | 3 to 50 |
| Cc1ccc(N(C)C(=O)N2CCC(C(=O)c3ccccc3)CC2)cc1 [Compound A2, 4-benzoyl-piperidine-1-carboxylic acid methyl-p-tolyl-amide] | 0.3 to 3 | 3 to 50 |
| COc1ccc(N(C)C(=O)N2CCC(C(=O)c3ccccc3)CC2)cc1 [Compound A4, 4-benzoyl-piperidine-1-carboxylic acid (4-methoxy-phenyl)-methyl-amide] | 0.3 to 3 | 3 to 50 |
| COc1ccc(N(C)C(=O)N2CCC(C(=O)c3ccc(C)cc3)CC2)cc1 [Compound A5, 4-(4-methyl-benzoyl)-piperidine-1-carboxylic acid (4-methoxy-phenyl)-methylamide] | < 0.3 | 3 to 50 |
| COc1ccc(C(=O)C2CCN(C(=O)N(C)c3ccc(OC)cc3)CC2)cc1 [Compound A6, 4-(4-methoxy-benzoyl)-piperidine-1-carboxylic acid (4-methoxy-phenyl)methyl-amide] | < 0.3 | 3 to 50 |
| COc1ccc(N(C)C(=O)N2CCC(C(=O)c3cccc(F)c3)CC2)cc1 [Compound A7, 4-(3-fluoro-benzoyl)-piperidine-1-carboxylic acid (4-methoxy-phenyl)-methylamide] | 0.3 to 3 | 3 to 50 |
| COc1ccc(N(C)C(=O)N2CCC(C(=O)c3ccc(F)cc3)CC2)cc1 [Compound A8, 4-(4-fluoro-benzoyl)-piperidine-1-carboxylic acid (4-methoxy-phenyl)-methylamide] | 0.3 to 3 | 3 to 50 |
| CN(C(=O)N1CCC(C(=O)c2ccccc2)CC1)c1ccc(F)cc1 [Compound A13, 4-benzoyl-piperidine-1-carboxylic acid (4-fluoro-phenyl)-methyl-amide] | 0.3 to 3 | 3 to 50 |
| CCN(C(=O)N1CCC(C(=O)c2ccccc2)CC1)c1ccc(OC)cc1 [Compound A14, 4-benzoyl-piperidine-1-carboxylic acid ethyl-(4-methoxy-phenyl)-amide] | < 0.3 | 3 to 50 |
| COc1ccc(N(CCO)C(=O)N2CCC(C(=O)c3ccccc3)CC2)cc1 [Compound A15, 4-benzoyl-piperidine-1-carboxylic acid (2-hydroxy-ethyl)-(4-methoxy-phenyl)amide] | 0.3 to 3 | 3 to 50 |
| O=C(c1ccccc1)C1CCN(C(=O)N2CCc3ccccc32)CC1 [Compound A16, (4-benzoyl-piperidin-1-yl)-(2,3-dihydro-indol-1-yl)-methanone] | 0.3 to 3 | 3 to 50 |
| Cc1ccc(C(=O)C2CCN(C(=O)N3CCc4ccccc43)CC2)cc1 [Compound A17, (2,3-dihydro-indol-1-yl)-[4-(4-methyl-benzoyl)-piperidin-1-yl]-methanone] | 0.3 to 3 | 3 to 50 |
| COc1ccc(C(=O)C2CCN(C(=O)N3CCc4ccccc43)CC2)cc1 [Compound A18, (2,3-dihydro-indol-1-yl)-[4-(4-methoxy-benzoyl)-piperidin-1-yl]-methanone] | 0.3 to 3 | 3 to 50 |
| CCN(C(=O)N1CCC(C(=O)c2ccc(OC)c(C)c2)CC1)c1ccc(OC)cc1 [Compound A24, 4-(4-methoxy-3-methyl-benzoyl)-piperidine-1-carboxylic acid ethyl-(4-methoxy-phenyl)-amide] | < 0.3 | 3 to 50 |
| COc1ccc(N(C)C(=O)N2CCC(C(=O)c3cccc(C)c3)CC2)cc1 [Compound A25, 4-(3-methyl-benzoyl)-piperidine-1-carboxylic acid (4-methoxy-phenyl)methyl-amide] | < 0.3 | 3 to 50 |
| CCN(C(=O)N1CCC(C(=O)c2cccc(C)c2)CC1)c1ccc(OC)cc1 [Compound A26, 4-(3-methyl-benzoyl)-piperidine-1-carboxylic acid ethyl-(4-methoxy-phenyl)amide] | < 0.3 | 3 to 50 |
| COc1ccc(N(C)C(=O)N2CCC(C(=O)c3cccc(OC)c3)CC2)cc1 [Compound A27, 4-(3-methoxy-benzoyl)-piperidine-1-carboxylic acid (4-methoxy-phenyl)methyl-amide] | < 0.3 | 3 to 50 |
| CCN(C(=O)N1CCC(C(=O)c2cccc(OC)c2)CC1)c1ccc(OC)cc1 [Compound A28, 4-(3-methoxy-benzoyl)-piperidine-1-carboxylic acid ethyl-(4-methoxy-phenyl)amide] | < 0.3 | 3 to 50 |
| COc1ccc(N(C)C(=O)N2CCC(C(=O)c3ccc(OC)c(F)c3)CC2)cc1 [Compound A29, 4-(3-fluoro-4-methoxy-benzoyl)-piperidine-1-carboxylic acid (4-methoxy-phenyl)-methyl-amide] |  | 3 to 50 |
| CN(C(=O)N1CCC(C(=O)c2ccc(NS(C)(=O)=O)cc2)CC1)c1ccccc1 [Compound A38, 4-(4-methanesulfonylamino-benzoyl)-piperidine-1-carboxylic acid methyl-phenyl-amide] | < 0.3 | 3 to 50 |
| CCOC(=O)CN(C(=O)N1CCC(C(=O)c2ccc(OC)cc2)CC1)c1ccccc1 [Compound A40, {[4-(4-methoxy-benzoyl)-piperidine-1-carbonyl]-phenyl-amino}-acetic acid ethyl ester] | < 0.3 | 3 to 50 |
